Laboratory results: the supplement of paper PMC12137928
Counter-ions that a name gives are not always drawn.

System: HCT116
Conditions: 72 h
How it was run: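 For IC50 and maximal efficacy, four-parameter Hill fits were used. Input values were CellTiter-Glo luminescence from HCT116 cells seeded at 250 per well in 1536-well plates, normalized to vehicle (0%) and positive control (-100%). Pattern correction followed normalization.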

IC50 cell viability (ICRF193 0 nM)	IC50 cell viability (ICRF193 200 nM)	SMILES
> 45.8 µM	> 45.8 µM	Nc1c(I)cc(I)c(C(=O)N(CCC(=O)O)c2ccccc2)c1I [Iobenzamic acid]
> 45.8 µM	> 45.8 µM	CNC(=O)c1c(I)c(NC(=O)CCCCC(=O)Nc2c(I)c(C(=O)O)c(I)c(C(=O)NC)c2I)c(I)c(C(=O)O)c1I [Iocarmic acid]
> 45.8 µM	> 45.8 µM	CC(=O)NCc1c(I)c(NC(C)=O)c(I)c(C(=O)O)c1I [Iodamide]
> 45.8 µM	> 45.8 µM	Cc1c(I)c(=O)n(-c2ccccc2)n1C [Iodoantipyrine]
> 45.8 µM	> 45.8 µM	CN(C(=O)CO)c1c(I)c(C(=O)NCC(O)CO)c(I)c(C(=O)NCC(O)CO)c1I (stereo not drawn) [Iomeprol]
> 45.8 µM	> 45.8 µM	CCC(Cc1c(I)cc(I)c(N)c1I)C(=O)O (stereo not drawn) [Iopanoic acid]
> 45.8 µM	> 45.8 µM	COCC(=O)Nc1c(I)c(C(=O)NCC(O)CO)c(I)c(C(=O)N(C)CC(O)CO)c1I (stereo not drawn) [Iopromide]
> 45.8 µM	> 45.8 µM	CNC(=O)c1c(I)c(NC(C)=O)c(I)c(C(=O)O)c1I [Iothalamate sodium]
> 45.8 µM	> 45.8 µM	O=C(NCC(O)CO)c1c(I)c(C(=O)NCC(O)CO)c(I)c(N(CCO)C(=O)CO)c1I (stereo not drawn) [Ioversol]
> 45.8 µM	> 45.8 µM	CNC(=O)c1c(I)c(C(=O)NCC(=O)Nc2c(I)c(C(=O)O)c(I)c(C(=O)NCCO)c2I)c(I)c(N(C)C(C)=O)c1I [Ioxaglic Acid]
> 45.8 µM	> 45.8 µM	CC(=O)N(CC(O)CO)c1c(I)c(C(=O)NCCO)c(I)c(C(=O)NCC(O)CO)c1I (stereo not drawn) [Ioxilan]
> 45.8 µM	> 45.8 µM	OC[C@H]1O[C@@H](c2ccc(F)c(Cc3cc4ccccc4s3)c2)[C@H](O)[C@@H](O)[C@@H]1O [Ipragliflozin]
> 45.8 µM	> 45.8 µM	CC(C)[N+]1(C)[C@@H]2CC[C@H]1C[C@@H](OC(=O)C(CO)c1ccccc1)C2 (stereo partly drawn) [Ipratropium bromide]
> 45.8 µM	> 45.8 µM	CCCCC1=NC2(CCCC2)C(=O)N1Cc1ccc(-c2ccccc2-c2nnn[nH]2)cc1 [Irbesartan]
> 45.8 µM	> 45.8 µM	Nc1nc(N)nc(-c2cc(Cl)ccc2Cl)n1 [Irsogladine maleate]
> 45.8 µM	> 45.8 µM	NC(=O)NC1N=C([O][Al])NC1=O.O.O (stereo not drawn) [Isalon]
> 45.8 µM	> 45.8 µM	CN[C@@H]1[C@@H](O)[C@@H](O[C@@H]2[C@@H](O)[C@H](O[C@H]3O[C@H](CN)[C@@H](O)[C@H](O)[C@H]3O)[C@@H](N)C[C@H]2NC(=O)[C@@H](O)CN)OC[C@]1(C)O [Isepamicin]

IC50 cell viability (ICRF193 0 nM)	IC50 cell viability (ICRF193 200 nM)	SMILES
> 45.8 µM	> 45.8 µM	FC(F)OC(Cl)C(F)(F)F (stereo not drawn) [Isoflurane]
> 45.8 µM	> 45.8 µM	CC(=NNC(=O)c1ccncc1)C(=O)O [Isoniazid pyruvate]
> 45.8 µM	> 45.8 µM	O=C(NNCS(=O)(=O)O)c1ccncc1 [Isoniazid sodium methanesulfonate]
> 45.8 µM	> 45.8 µM	NNC(=O)c1ccncc1 [Isoniazid]
> 45.8 µM	> 45.8 µM	CCCCCCCCCCCCCC(=O)OC(C)C [Isopropyl tetradecanoic acid]
> 45.8 µM	> 45.8 µM	O[C@@H]1CO[C@H]2[C@@H]1OC[C@@H]2O [Isosorbide]
> 45.8 µM	> 45.8 µM	CC(CN1c2ccccc2Sc2cccnc21)N(C)C (stereo not drawn) [Isothipendyl hydrochloride]
> 45.8 µM	> 45.8 µM	CC1=C(/C=C/C(C)=C/C=C/C(C)=C\C(=O)O)C(C)(C)CCC1 [Isotretinoin]
> 45.8 µM	> 45.8 µM	CC(COc1ccccc1)NC(C)C(O)c1ccc(O)cc1 (stereo not drawn) [Isoxsuprine hydrochloride]
> 45.8 µM	> 45.8 µM	COC(=O)C1=C(C)NC(C)=C(C(=O)OC(C)C)C1c1cccc2nonc12 (stereo not drawn) [Isradipine]
> 45.8 µM	> 45.8 µM	CCn1c(=O)c2c(nc(/C=C/c3ccc(OC)c(OC)c3)n2C)n(CC)c1=O [Istradefylline]
> 45.8 µM	> 45.8 µM	COc1ccc(C(=O)NCc2ccc(OCCN(C)C)cc2)cc1OC [Itopride hydrochloride]
> 45.8 µM	> 45.8 µM	Cc1oc(-c2ccccc2)nc1CCOc1ccc(CC2C(=O)NOC2=O)cc1 (stereo not drawn) [JTT-501]
> 45.8 µM	> 45.8 µM	CC(=O)CCC1C(=O)N(c2ccccc2)N(c2ccccc2)C1=O [Kebuzone]
> 45.8 µM	> 45.8 µM	CN1CCC(=C2c3ccccc3CC(=O)c3sccc32)CC1 [Ketotifen]
> 45.8 µM	> 45.8 µM	O=c1cc(CO)occ1O [Kojic acid]
> 45.8 µM	> 45.8 µM	N=C(N)NCCC[C@H](N)C(=O)O [L-Arginine]

The next lines start with the compound.

SMILES	IC50 cell viability (ICRF193 0 nM)	IC50 cell viability (ICRF193 200 nM)
CC(=O)N(CC(C)C(=O)O)c1c(I)cc(I)c(N)c1I (stereo not drawn) [Iocetamic acid]	> 45.8 µM	> 45.8 µM
O=C(CCCCC(=O)Nc1c(I)cc(I)c(C(=O)O)c1I)Nc1c(I)cc(I)c(C(=O)O)c1I [Iodipamide]	> 45.8 µM	> 45.8 µM
CC(=O)N(CC(O)CN(C(C)=O)c1c(I)c(C(=O)NCC(O)CO)c(I)c(C(=O)NCC(O)CO)c1I)c1c(I)c(C(=O)NCC(O)CO)c(I)c(C(=O)NCC(O)CO)c1I (stereo not drawn) [Iodixanol]	> 45.8 µM	> 45.8 µM
O=C(CCOCCOCCOCCOCCC(=O)Nc1c(I)cc(I)c(C(=O)O)c1I)Nc1c(I)cc(I)c(C(=O)O)c1I [Iodoxamic Acid]	> 45.8 µM	> 45.8 µM
CC(C)NC(C)Cc1ccc(I)cc1 (stereo not drawn) [Iofetamine hydrochloride]	> 45.8 µM	> 45.8 µM
CC(=O)N(CC(O)CO)c1c(I)c(C(=O)NCC(O)CO)c(I)c(C(=O)NCC(O)CO)c1I (stereo not drawn) [Iohexol]	> 45.8 µM	> 45.8 µM
CCOC(=O)c1ncn2c1CN(C)C(=O)c1c(I)cccc1-2 [Iomazenil]	> 45.8 µM	> 45.8 µM
C[C@H](O)C(=O)Nc1c(I)c(C(=O)NC(CO)CO)c(I)c(C(=O)NC(CO)CO)c1I [Iopamidol]	> 45.8 µM	> 45.8 µM
CC(C)C[C@H]1[C@@H](c2ccccc2)OC(=O)N1CCCN1CCCCCC1 [Ipenoxazone hydrochloride]	> 45.8 µM	> 45.8 µM
CN(C)/C=N/c1c(I)cc(I)c(CCC(=O)O)c1I [Ipodate sodium]	> 45.8 µM	> 45.8 µM
CC(C)Oc1ccc2c(=O)c(-c3ccccc3)coc2c1 [Ipriflavone]	> 45.8 µM	> 45.8 µM
CC(CC(C#N)(c1ccccc1)C(C)C)N(C)C (stereo not drawn) [Isoaminile]	> 45.8 µM	> 45.8 µM
CC(C)COC(=O)c1ccc(N)cc1 [Isocaine]	> 45.8 µM	> 45.8 µM
Cc1cc(C(=O)NNCc2ccccc2)no1 [Isocarboxazid]	> 45.8 µM	> 45.8 µM
C/C=C\c1ccc(O)c(OC)c1 [Isoeugenol]	> 45.8 µM	> 45.8 µM
CC(=O)OCC(=O)[C@@]1(O)CC[C@H]2[C@@H]3CCC4=CC(=O)C=C[C@]4(C)[C@@]3(F)[C@@H](O)C[C@@]21C [Isoflupredone acetate]	> 45.8 µM	> 45.8 µM
CC(C)NCC(O)c1ccc(O)c(O)c1 (stereo not drawn) [Isoprenaline hydrochloride]	> 45.8 µM	> 45.8 µM
CC(C)[N+](C)(CCC(C(N)=O)(c1ccccc1)c1ccccc1)C(C)C [Isopropamide]	> 45.8 µM	> 45.8 µM
O=[N+]([O-])O[C@H]1CO[C@H]2[C@@H]1OC[C@H]2O[N+](=O)[O-] [Isosorbide dinitrate]	> 45.8 µM	> 45.8 µM
O=[N+]([O-])O[C@@H]1CO[C@H]2[C@@H]1OC[C@@H]2O [Isosorbide mononitrate]	> 45.8 µM	> 45.8 µM
CN1[C@@H]2CC[C@H]1C[C@@H](NC(=O)n1c(=O)[nH]c3ccccc31)C2 [Itasetron]	> 45.8 µM	> 45.8 µM
CCC(C)n1ncn(-c2ccc(N3CCN(c4ccc(OCC5COC(Cn6cncn6)(c6ccc(Cl)cc6Cl)O5)cc4)CC3)cc2)c1=O (stereo not drawn) [Itraconazole]	> 45.8 µM	> 45.8 µM
COc1cc2c(cc1OC)CC(=O)N(CCCN(C)C[C@H]1Cc3cc(OC)c(OC)cc31)CC2 [Ivabradine hydrochloride]	> 45.8 µM	> 45.8 µM
C=C(C)[C@H]1CN[C@H](C(=O)O)[C@H]1CC(=O)O [Kainic acid]	> 45.8 µM	> 45.8 µM
NC[C@H]1O[C@H](O[C@H]2[C@H](O)[C@@H](O[C@H]3O[C@H](CO)[C@@H](O)[C@H](N)[C@H]3O)[C@H](N)C[C@@H]2N)[C@H](O)[C@@H](O)[C@@H]1O [Kanamycin (sulfate)]	> 45.8 µM	> 45.8 µM
O=C(c1ccc(F)cc1)C1CCN(CCn2c(=O)[nH]c3ccccc3c2=O)CC1 [Ketanserin]	> 45.8 µM	> 45.8 µM
O=C(c1ccccc1)c1ccc2n1CCC2C(=O)O (stereo not drawn) [Ketorolac]	> 45.8 µM	> 45.8 µM
Cl.NCCCC[C@H](N)C(=O)O [L-(+)-Lysine monohydrochloride]	> 45.8 µM	> 45.8 µM
O=C1O[C@H]([C@@H](O)CO)C(O)=C1O [L-Ascorbic acid]	> 45.8 µM	> 45.8 µM
CCCCCCCCCCCCCCCC(=O)OC[C@H](O)[C@H]1OC(=O)C(O)=C1O [L-Ascorbyl 6-palmitate]	> 45.8 µM	> 45.8 µM
